Test results from patent US20240252488A1 (KOREA RESEARCH INSTITUTE OF CHEMICAL TECHNOLOGY, priority 2020, published 2024).

Experiments:
FADD−/− Jurkat cells = assay: Necroptosis inhibition assay, TNF-α-induced necroptosis (CellTiter-Glo 2.0); type: cell-based, human; details: TNF-α 15 ng/mL; for Necroptosis inhibition assay (Rescue %) 1 μM: compound 1 μM; for Necroptosis inhibition assay (Rescue %) 10 μM: compound 10 μM
How it was run: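 Necroptosis was triggered by TNF-α at 15 ng/mL final following 30 minutes of compound exposure (0.1, 1 or 10 μM final). Incubation ran 20 to 24 hours at 37° C under 5% CO2; cell ATP was then quantified by luminescence.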

MLKL [1] = molecular target: T1, MLKL (Homo sapiens, UniProt Q8NB16); assay: MLKL degradation assay in HepG2 cell line (western blot); type: cell-based; design: endogenous in cells; host or cells: HepG2 or HaCaT; details: cell line not given; for Degradation assay (Degradation %) 1 μM: compound 1 μM; for Degradation assay (Degradation %) 10 μM: compound 10 μM
T1 sequence (Q8NB16 1-471): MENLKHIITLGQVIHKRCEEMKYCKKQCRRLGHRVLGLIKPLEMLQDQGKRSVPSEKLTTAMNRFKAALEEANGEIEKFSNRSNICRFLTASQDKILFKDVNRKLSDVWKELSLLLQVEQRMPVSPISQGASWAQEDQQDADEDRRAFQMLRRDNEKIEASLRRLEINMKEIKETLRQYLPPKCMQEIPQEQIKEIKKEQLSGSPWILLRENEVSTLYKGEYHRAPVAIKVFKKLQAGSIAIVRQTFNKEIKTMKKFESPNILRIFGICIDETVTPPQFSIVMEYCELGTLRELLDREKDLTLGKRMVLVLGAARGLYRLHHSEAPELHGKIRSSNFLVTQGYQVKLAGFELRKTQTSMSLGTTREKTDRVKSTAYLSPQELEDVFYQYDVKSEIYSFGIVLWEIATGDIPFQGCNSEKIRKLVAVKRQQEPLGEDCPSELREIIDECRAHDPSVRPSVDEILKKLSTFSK
How it was run: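 After treating HepG2 with test compounds (final 1 μM or 10 μM) for 20-24 h, we lysed cells, equalized protein by BCA and probed MLKL by overnight primary antibody at 4 °C followed by chemiluminescent detection.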

MLKL [2] = molecular target: T1, MLKL; assay: Measurement of binding affinity with MLKL receptor (competitive binding assay, Kd); design: made in house; host or cells: HEK 293 cell line (T7 phage in E. coli BL21-derived host is also described)
How it was run: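 Competitive displacement of MLKL, expressed in HEK 293 cells and DNA-tagged for qPCR, from immobilized ligand on biotin-blocked beads. Compounds were added from 111× DMSO stocks (final DMSO 0.9%). Kinase left in the eluates was quantified by qPCR to give Kd.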

| Compound | Necroptosis inhibition assay (Rescue %) 1 μM (FADD−/− Jurkat cells; FADD−/− Jurkat cells) | Necroptosis inhibition assay (Rescue %) 10 μM (FADD−/− Jurkat cells; FADD−/− Jurkat cells) | Degradation assay (Degradation %) 1 μM (MLKL [1]) | Degradation assay (Degradation %) 10 μM (MLKL [1]) | Kd (MLKL [2]) | Necroptosis inhibition assay (Rescue %) 1 μM (FADD−/− Jurkat cells) | Necroptosis inhibition assay (Rescue %) 10 μM (FADD−/− Jurkat cells) |
| --- | --- | --- | --- | --- | --- | --- | --- |
| COc1ccc(C(=O)N2CCC(CN3CCC(n4cc(-c5cnc(N)c(C(=O)O[C@@H](C(=O)Nc6ccc(F)cc6)c6ccccc6)n5)cn4)CC3)CC2)cc1N1CCC(=O)NC1=O [TDH-445, (R)-2-((4-fluorophenyl)amino)-2-oxo-1-phenylethyl 3-amino-6-(1-(1-((1-(3-(2,4-dioxotetrahydropyrimidin-1(2H)-yl)-4-methoxybenzoyl)piperidin-4-yl)methyl)piperidin-4-yl)-1H-pyrazol-4-yl)pyrazine-2-carboxylate] | 12.07% | 19.83% | 20.29% | 27.38% | 0.6 nM | – | – |
| Nc1ncc(-c2cnn([C@@H]3CCN(CC4CCN(C(=O)COc5ccc6c(c5)C(=O)N(C5CCC(=O)NC5=O)C6=O)CC4)C3)c2)nc1C(=O)OC(C(=O)Nc1ccc(F)cc1)c1ccccc1 (stereo partly drawn) [TDH-288, 2-((4-fluorophenyl)amino)-2-oxo-1-phenylethyl 3-amino-6-(1-((3R)-1-((1-(2-((2-(2,6-dioxopiperidin-3-yl)-1,3-dioxoisoindolin-5-yl)oxy)acetyl)piperidin-4-yl)methyl)pyrrolidin-3-yl)-1H-pyrazol-4-yl)pyrazine-2-carboxylate] | – | – | 75.31% | 89.16% | 5.2 nM | 70.93% | 66.54% |
| COc1ccc(C(=O)N2CCC(C(=O)N3CCC(CCN4CCC(n5cc(-c6cnc(N)c(C(=O)O[C@@H](C(=O)Nc7ccc(F)cc7)c7ccccc7)n6)cn5)CC4)CC3)CC2)cc1N1CCC(=O)NC1=O [TDH-517, (R)-2-((4-fluorophenyl)amino)-2-oxo-1-phenylethyl 3-amino-6-(1-(1-(2-(1-(1-(3-(2,4-dioxotetrahydropyrimidin-1(2H)-yl)-4-methoxybenzoyl)piperidine-4-carbonyl)piperidin-4-yl)ethyl)piperidin-4-yl)-1H-pyrazol-4-yl)pyrazine-2-carboxylate] | 58.11% | 10.78% | 93.97% | 86.64% | 0.62 nM | – | – |
| Nc1ncc(-c2cnn(C3CCN(CC4CCN(C(=O)CNc5ccc6c(c5)C(=O)N(C5CCC(=O)NC5=O)C6=O)CC4)CC3)c2)nc1C(=O)N[C@@H](C(=O)Nc1ccc(F)cc1)c1ccccc1 (stereo partly drawn) [TDH-207, 3-amino-6-(1-(1-((1-((2-(2,6-dioxopiperidin-3-yl)-1,3-dioxoisoindolin-5-yl)glycyl)piperidin-4-yl)methyl)piperidin-4-yl)-1H-pyrazol-4-yl)-N-((R)-2-((4-fluorophenyl)amino)-2-oxo-1-phenylethyl)pyrazine-2-carboxamide] | – | – | 17.98% | 24.18% | 210 nM | 28.69% | 32.45% |
| Nc1ncc(-c2cnn(C3CCN(CCCN4CCN(C(=O)CC5CCN(c6cccc7c6C(=O)N(C6CCC(=O)NC6=O)C7=O)CC5)CC4)CC3)c2)nc1C(=O)O[C@@H](C(=O)Nc1ccc(F)cc1)c1ccccc1 (stereo partly drawn) [TDH-368, (R)-2-((4-fluorophenyl)amino)-2-oxo-1-phenylethyl 3-amino-6-(1-(1-(3-(4-(2-(1-(2-(2,6-dioxopiperidin-3-yl)-1,3-dioxoisoindolin-4-yl)piperidin-4-yl)acetyl)piperazin-1-yl)propyl)piperidin-4-yl)-1H-pyrazol-4-yl)pyrazine-2-carboxylate] | – | – | 86.09% | 88.6% | 1 nM | 40.51% | 5.97% |
| Nc1ncc(-c2cnn(C3CCN(C(=O)CCC4CCN(c5ccc6c(c5)C(=O)N(C5CCC(=O)NC5=O)C6=O)CC4)CC3)c2)nc1C(=O)O[C@@H](C(=O)Nc1ccc(F)cc1)c1ccccc1 (stereo partly drawn) [TDH-420, (R)-2-((4-fluorophenyl)amino)-2-oxo-1-phenylethyl 3-amino-6-(1-(1-(3-(1-(2-(2,6-dioxopiperidin-3-yl)-1,3-dioxoisoindolin-5-yl)piperidin-4-yl)propanoyl)piperidin-4-yl)-1H-pyrazol-4-yl)pyrazine-2-carboxylate] | 8.39% | 2.00% | 74.57% | 51.38% | 10 nM | – | – |
| Nc1ncc(-c2ccc(N3CCN(CCOCCOCCNC(=O)C4CCN(c5ccc6c(c5)C(=O)N(C5CCC(=O)NC5=O)C6=O)CC4)CC3)nc2)nc1C(=O)OC(C(=O)Nc1ccc(F)cc1)c1ccccc1 (stereo not shown) [TDH-258, 2-((4-fluorophenyl)amino)-2-oxo-1-phenylethyl 3-amino-6-(6-(4-(2-(2-(2-(1-(2-(2,6-dioxopiperidin-3-yl)-1,3-dioxoisoindolin-5-yl)piperidine-4-carboxamido)ethoxy)ethoxy)ethyl)piperazin-1-yl)pyridin-3-yl)pyrazine-2-carboxylate] | – | – | 13.9% | 10.67% | 78 nM | 33.73% | 24.69% |
| Nc1ncc(-c2cnn(C3CCN(C(=O)CC4CCN(C(=O)C5CCN(c6ccc7nnn(C8CCC(=O)NC8=O)c(=O)c7c6)CC5)CC4)CC3)c2)nc1C(=O)O[C@@H](C(=O)Nc1ccc(F)cc1)c1ccccc1 (stereo partly drawn) [TDH-407, (R)-2-((4-fluorophenyl)amino)-2-oxo-1-phenylethyl 3-amino-6-(1-(1-(2-(1-(1-(3-(2,6-dioxopiperidin-3-yl)-4-oxo-3,4-dihydrobenzo[d][1,2,3]triazin-6-yl)piperidine-4-carbonyl)piperidin-4-yl)acetyl)piperidin-4-yl)-1H-pyrazol-4-yl)pyrazine-2-carboxylate] | 52.02% | 42.95% | 83.70% | 79.77% | 7.5 nM | – | – |
| Nc1ncc(-c2cnn(C3CCN(C(=O)CC4CCN(C(=O)CCc5ccc6c(c5)C(=O)N(C5CCC(=O)NC5=O)C6=O)CC4)CC3)c2)nc1C(=O)O[C@@H](C(=O)Nc1ccc(F)cc1)c1ccccc1 (stereo partly drawn) [TDH-403, (R)-2-((4-fluorophenyl)amino)-2-oxo-1-phenylethyl 3-amino-6-(1-(1-(2-(1-(3-(2-(2,6-dioxopiperidin-3-yl)-1,3-dioxoisoindolin-5-yl)propanoyl)piperidin-4-yl)acetyl)piperidin-4-yl)-1H-pyrazol-4-yl)pyrazine-2-carboxylate] | 43.50% | 29.42% | 79.40% | 83.30% | 2.8 nM | – | – |
| Nc1ncc(-c2cnn(C3CCN(CCC4CCN(C(=O)CNc5cccc6c5C(=O)N(C5CCC(=O)NC5=O)C6=O)CC4)CC3)c2)nc1C(=O)O[C@@H](C(=O)Nc1ccc(F)cc1)c1ccccc1 (stereo partly drawn) [TDH-198, (R)-2-((4-fluorophenyl)amino)-2-oxo-1-phenylethyl 3-amino-6-(1-(1-(2-(1-((2-(2,6-dioxopiperidin-3-yl)-1,3-dioxoisoindolin-4-yl)glycyl)piperidin-4-yl)ethyl)piperidin-4-yl)-1H-pyrazol-4-yl)pyrazine-2-carboxylate] | – | – | 69.49% | 41.71% | 1.3 nM | 79.13% | 31.65% |
| Nc1ncc(-c2cnn(C3CCN(CCOCCNC(=O)C4CCN(c5ccc6c(c5)C(=O)N(C5CCC(=O)NC5=O)C6=O)CC4)CC3)c2)nc1C(=O)O[C@@H](C(=O)Nc1ccc(F)cc1)c1ccccc1 (stereo partly drawn) [TDH-129, (R)-2-((4-fluorophenyl)amino)-2-oxo-1-phenylethyl 3-amino-6-(1-(1-(2-(2-(1-(2-(2,6-dioxopiperidin-3-yl)-1,3-dioxoisoindolin-5-yl)piperidine-4-carboxamido)ethoxy)ethyl)piperidin-4-yl)-1H-pyrazol-4-yl)pyrazine-2-carboxylate] | – | – | 32.68% | 57.68% | 7.1 nM | 49.22% | 67.79% |
